Assay results from PubChem BioAssay AID1259411 (Chemical Carcinogenesis Research Information System (CCRIS), 2018).
Calls of active or inactive are those of the source. The rule behind the calls is not given here.

System: rodent carcinogenicity bioassays, tumor incidence
Assay: CCRIS carcinogenicity studies
Details: Dose: 0
In short: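 Archive of carcinogenicity, mutagenicity, tumor promotion and tumor inhibition results drawn from journals, NCI reports and other sources, expert-reviewed; covers 1985-2011 and is no longer updated.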

Measured: carcinogen call

Cc1c(N)nc(C)c2c1[nH]c1ccccc12
active: Species: MOUSE, Strain/Sex: CDF1/FEMALE, Route: ORAL, 200 PPM IN DIET FOR 621 D, Tumor Site: Type of Lesion: LIVER: HEPATOCELLULAR CARCINOMA active; positive | Species: MOUSE, Strain/Sex: DDY/FEMALE, Route: BLADDER IMPLANT, 5% IN PARAFFIN PELLET (STUDY DURATION: 40 WK), Tumor Site: Type of Lesion: URINARY BLADDER: TRANSITIONAL CELL CARCINOMA active; positive | Species: RAT, Strain/Sex: F344/FEMALE, Route: ORAL, 0.02% IN PELLET DIET FOR DURATION OF STUDY (STUDY DURATION: 365 D), Tumor Site: Type of Lesion: LIVER: TRABECULAR CARCINOMA, ADENOCARCINOMA active; positive | Species: RAT, Strain/Sex: F344/MALE, Route: ORAL, 0.015% IN PELLET DIET FOR DURATION OF STUDY (STUDY DURATION: 365 D), Tumor Site: Type of Lesion: LIVER: TRABECULAR CARCINOMA, ADENOCARCINOMA active; positive
